Laboratory results reported in ChEMBL document CHEMBL5032500, “Adenosine A2AR/A1R Antagonists Enabling Additional H3R Antagonism for the Treatment of Parkinson's Disease” (J Med Chem, 2021).
Activity calls are given as the source filed them. The rule behind the calls is not given here.

How the values were obtained:
[1] = species on record: Homo sapiens; assay: Selectivity index, ratio of Ki for human recombinant dopamine D2S receptor to Ki for human recombinant adenosine A1 receptor
[2] = species on record: Homo sapiens; assay: Selectivity index, ratio of Ki for human recombinant adenosine A2B receptor to Ki for human recombinant histamine H3 receptor
[3] = species on record: Homo sapiens; assay: Selectivity index, ratio of Ki for human recombinant adenosine A2A receptor to Ki for human recombinant adenosine A1 receptor
[4] = species on record: Homo sapiens; assay: Selectivity index, ratio of Ki for human recombinant dopamine D3 receptor to Ki for human recombinant adenosine A3 receptor
[5] = species on record: Homo sapiens; assay: Selectivity index, ratio of Ki for human recombinant dopamine D2S receptor to Ki for human recombinant histamine H3 receptor
[6] = species on record: Homo sapiens; assay: Selectivity index, ratio of Ki for human recombinant adenosine A3 receptor to Ki for human recombinant adenosine A2A receptor
[7] = target: D(2) dopamine receptor (Homo sapiens, UniProt P14416); assay: Displacement of [3H]spiperone from human recombinant dopamine D2S receptor expressed in CHO cells by liquid scintillation counting analysis; format: cell-based
Sequence of D(2) dopamine receptor (P14416 whole entry): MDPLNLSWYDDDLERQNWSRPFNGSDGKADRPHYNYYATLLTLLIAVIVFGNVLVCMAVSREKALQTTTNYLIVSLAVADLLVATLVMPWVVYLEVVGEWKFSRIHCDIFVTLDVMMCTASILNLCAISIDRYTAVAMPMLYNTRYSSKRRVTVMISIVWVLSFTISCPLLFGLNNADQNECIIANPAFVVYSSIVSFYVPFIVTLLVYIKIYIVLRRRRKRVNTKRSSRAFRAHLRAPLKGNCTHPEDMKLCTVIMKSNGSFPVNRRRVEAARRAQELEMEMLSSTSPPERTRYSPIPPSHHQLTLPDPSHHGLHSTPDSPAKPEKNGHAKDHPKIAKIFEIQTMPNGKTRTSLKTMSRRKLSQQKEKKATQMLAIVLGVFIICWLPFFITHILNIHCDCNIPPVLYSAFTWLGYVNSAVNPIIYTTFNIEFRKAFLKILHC

[8] = target: MAO-A (Homo sapiens, UniProt P21397); assay: Inhibition of human recombinant MAO-A using kynuramine as substrate at 10 uM measured for 30 mins by spectrophotometric analysis; settings: probe kynuramine
Sequence of MAO-A (P21397 whole entry): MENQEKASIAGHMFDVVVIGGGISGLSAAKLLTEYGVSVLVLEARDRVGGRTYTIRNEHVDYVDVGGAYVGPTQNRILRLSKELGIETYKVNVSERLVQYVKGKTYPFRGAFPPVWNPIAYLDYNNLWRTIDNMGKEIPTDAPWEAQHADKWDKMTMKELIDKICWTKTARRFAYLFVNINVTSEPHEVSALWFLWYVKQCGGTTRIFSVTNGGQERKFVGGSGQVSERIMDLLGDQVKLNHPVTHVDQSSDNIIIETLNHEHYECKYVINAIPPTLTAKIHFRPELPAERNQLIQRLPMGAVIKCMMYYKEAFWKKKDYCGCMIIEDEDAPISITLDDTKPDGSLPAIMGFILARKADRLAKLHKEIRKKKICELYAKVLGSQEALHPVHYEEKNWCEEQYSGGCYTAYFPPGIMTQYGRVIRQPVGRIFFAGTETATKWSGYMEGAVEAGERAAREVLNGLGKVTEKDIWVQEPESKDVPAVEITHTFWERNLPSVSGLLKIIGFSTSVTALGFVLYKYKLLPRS

[9] = species on record: Homo sapiens; assay: Selectivity index, ratio of Ki for human recombinant dopamine D3 receptor to Ki for human recombinant histamine H3 receptor
[10] = species on record: Homo sapiens; assay: Selectivity index, ratio of Ki for human recombinant dopamine D3 receptor to Ki for human recombinant adenosine A2B receptor
[11] = species on record: Homo sapiens; assay: Selectivity index, ratio of Ki for human recombinant adenosine A1 receptor to Ki for human recombinant histamine H3 receptor
[12] = species on record: Homo sapiens; assay: Selectivity index, ratio of Ki for human recombinant adenosine A2B receptor to Ki for human recombinant adenosine A1 receptor
[13] = target: MAO-B (Homo sapiens, UniProt P27338); assay: Inhibition of human recombinant MAO-B using kynuramine as substrate at 10 uM measured for 30 mins by spectrophotometric analysis; settings: probe kynuramine
Sequence of MAO-B (P27338 whole entry): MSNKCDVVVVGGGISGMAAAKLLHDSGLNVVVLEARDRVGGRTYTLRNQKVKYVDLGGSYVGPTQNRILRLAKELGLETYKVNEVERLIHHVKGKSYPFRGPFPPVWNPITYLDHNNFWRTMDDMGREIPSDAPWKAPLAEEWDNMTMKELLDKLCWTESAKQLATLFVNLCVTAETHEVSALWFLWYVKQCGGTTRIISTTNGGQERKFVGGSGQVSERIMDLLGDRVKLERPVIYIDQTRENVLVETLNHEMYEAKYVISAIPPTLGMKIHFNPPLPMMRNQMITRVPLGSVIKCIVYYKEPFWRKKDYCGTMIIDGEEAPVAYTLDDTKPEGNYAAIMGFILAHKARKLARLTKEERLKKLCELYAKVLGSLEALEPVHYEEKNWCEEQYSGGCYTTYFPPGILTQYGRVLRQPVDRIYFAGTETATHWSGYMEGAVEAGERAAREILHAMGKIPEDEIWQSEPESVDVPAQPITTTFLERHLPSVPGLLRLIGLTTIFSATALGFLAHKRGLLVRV

[14] = target: Adenosine receptors; A1 & A3 (Homo sapiens) (UniProt P30542+P0DMS8); assay: Selectivity index, ratio of Ki for human recombinant adenosine A3 receptor to Ki for human recombinant adenosine A1 receptor; format: protein assay
[15] = species on record: Homo sapiens; assay: Selectivity index, ratio of Ki for human recombinant adenosine A3 receptor to Ki for human recombinant adenosine A2B receptor
[16] = target: Histamine H4 receptor (Homo sapiens, UniProt Q9H3N8); assay: Displacement of [3H]histamine from human recombinant histamine H4 receptor expressed in sf9 cells by liquid scintillation counting analysis
[17] = species on record: Homo sapiens; assay: Selectivity index, ratio of Ki for human recombinant adenosine A3 receptor to Ki for human recombinant histamine H3 receptor
[18] = species on record: Homo sapiens; assay: Selectivity index, ratio of Ki for human recombinant dopamine D2S receptor to Ki for human recombinant adenosine A2A receptor
[19] = test system: Mus musculus; assay: Induction of wakefulness in C57BL/6 mouse assessed as increase in time spent awake at 2 mg/kg, po by EEG analysis; format: functional, organism-based
[20] = test system: Mus musculus; assay: Induction of wake promoting activity in C57BL/6 mouse assessed as reduction in slow wave sleep at 2 mg/kg, po by EEG analysis; format: functional, organism-based
[21] = target: T1, Adenosine receptor A2b (Homo sapiens, UniProt P29275); assay: Displacement of [3H]PSB-603 from human recombinant adenosine A2B receptor expressed in CHO cells by liquid scintillation counting analysis; format: cell-based
T1 sequence (P29275 whole entry): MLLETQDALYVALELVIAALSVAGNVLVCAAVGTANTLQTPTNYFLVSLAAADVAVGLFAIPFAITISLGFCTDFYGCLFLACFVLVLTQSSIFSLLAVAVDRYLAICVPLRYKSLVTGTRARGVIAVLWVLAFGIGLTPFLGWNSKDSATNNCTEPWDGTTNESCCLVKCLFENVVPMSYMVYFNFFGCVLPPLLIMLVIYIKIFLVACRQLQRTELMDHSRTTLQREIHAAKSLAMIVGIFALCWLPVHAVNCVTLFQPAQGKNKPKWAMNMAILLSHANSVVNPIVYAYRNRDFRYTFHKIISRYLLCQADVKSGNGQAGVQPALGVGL

[22] = species on record: Homo sapiens; assay: Selectivity index, ratio of Ki for human recombinant adenosine A2A receptor to Ki for human recombinant histamine H3 receptor
[23] = species on record: Homo sapiens; assay: Selectivity index, ratio of Ki for human recombinant dopamine D2S receptor to Ki for human recombinant adenosine A3 receptor
[24] = test system: Mus musculus; assay: Induction of wakefulness in C57BL/6 mouse at 1 mg/kg, po by EEG analysis; format: functional, organism-based
[25] = species on record: Homo sapiens; assay: Selectivity index, ratio of Ki for human recombinant dopamine D3 receptor to Ki for human recombinant adenosine A1 receptor
[26] = target: D(1B) dopamine receptor (Homo sapiens, UniProt P21918); assay: Displacement of [3H]SCH23390 from human recombinant dopamine D5 receptor expressed in HEK293 cells by liquid scintillation counting analysis; format: cell-based
Sequence of D(1B) dopamine receptor (P21918 whole entry): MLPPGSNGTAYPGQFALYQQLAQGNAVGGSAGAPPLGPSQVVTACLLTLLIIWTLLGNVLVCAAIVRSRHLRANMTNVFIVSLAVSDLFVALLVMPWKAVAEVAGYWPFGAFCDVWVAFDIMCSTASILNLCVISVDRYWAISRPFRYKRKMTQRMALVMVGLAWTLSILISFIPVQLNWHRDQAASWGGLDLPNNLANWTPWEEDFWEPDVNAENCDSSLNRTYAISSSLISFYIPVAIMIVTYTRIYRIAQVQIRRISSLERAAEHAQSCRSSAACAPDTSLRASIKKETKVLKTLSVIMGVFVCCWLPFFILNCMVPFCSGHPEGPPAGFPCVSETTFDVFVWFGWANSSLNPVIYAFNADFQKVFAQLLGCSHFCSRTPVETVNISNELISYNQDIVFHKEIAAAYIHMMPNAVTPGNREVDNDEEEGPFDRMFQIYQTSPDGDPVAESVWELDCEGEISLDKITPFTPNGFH

[27] = target: Histamine H3 receptor (Homo sapiens, UniProt Q9Y5N1); assay: Displacement of [3H] N-alpha methylhistamine from human recombinant histamine H3 receptor expressed in HEK293 cells measured after 90 mins; format: cell-based
Sequence of Histamine H3 receptor (Q9Y5N1 whole entry): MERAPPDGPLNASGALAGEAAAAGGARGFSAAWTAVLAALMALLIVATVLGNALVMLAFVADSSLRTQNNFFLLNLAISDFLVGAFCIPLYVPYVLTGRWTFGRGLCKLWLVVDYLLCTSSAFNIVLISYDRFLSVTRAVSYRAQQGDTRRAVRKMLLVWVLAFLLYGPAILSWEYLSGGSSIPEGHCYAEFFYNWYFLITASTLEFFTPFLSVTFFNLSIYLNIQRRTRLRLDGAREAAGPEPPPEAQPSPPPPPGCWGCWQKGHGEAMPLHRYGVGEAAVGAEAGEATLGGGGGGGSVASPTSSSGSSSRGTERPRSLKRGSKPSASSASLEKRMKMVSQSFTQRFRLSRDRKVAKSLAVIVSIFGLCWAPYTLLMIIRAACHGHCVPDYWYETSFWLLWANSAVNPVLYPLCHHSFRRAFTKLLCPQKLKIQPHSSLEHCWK

[28] = test system: Rattus norvegicus; assay: Antiparkinson's activity in ip dosed L-DOPA induced dyskinesia Sprague-Dawley rat model assessed as reduction in dyskinesia by measuring abnormal involuntary movement upto 21 days; format: functional, organism-based; settings: dose 0.1-1 mg/kg, time day <=21
[29] = species on record: Homo sapiens; assay: Selectivity index, ratio of Ki for human recombinant dopamine D3 receptor to Ki for human recombinant adenosine A2A receptor
[30] = species on record: Homo sapiens; assay: Selectivity index, ratio of Ki for human recombinant adenosine A2B receptor to Ki for human recombinant adenosine A2A receptor
[31] = species on record: Homo sapiens; assay: Selectivity index, ratio of Ki for human recombinant dopamine D3 receptor to Ki for human recombinant dopamine D2S receptor
[32] = target: T2, Adenosine receptor A1 (Homo sapiens, UniProt P30542); assay: Displacement of [3H]CCPA from human recombinant adenosine A1 receptor expressed in CHO cells by liquid scintillation counting analysis; format: cell-based
T2 sequence (P30542 whole entry): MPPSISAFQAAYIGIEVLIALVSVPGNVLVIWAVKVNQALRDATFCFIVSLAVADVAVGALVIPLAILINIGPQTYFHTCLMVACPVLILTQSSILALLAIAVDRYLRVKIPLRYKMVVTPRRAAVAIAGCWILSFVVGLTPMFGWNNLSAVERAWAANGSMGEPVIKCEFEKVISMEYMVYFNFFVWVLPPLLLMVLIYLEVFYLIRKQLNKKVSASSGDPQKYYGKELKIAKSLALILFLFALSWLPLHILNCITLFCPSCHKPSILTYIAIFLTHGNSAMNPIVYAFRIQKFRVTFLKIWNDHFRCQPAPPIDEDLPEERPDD

[33] = target: T3, Adenosine receptor A2a (Homo sapiens, UniProt P29274); assay: Displacement of [3H]MSX-2 from human recombinant adenosine A2A receptor expressed in CHO cells by liquid scintillation counting analysis; format: cell-based
T3 sequence (P29274 whole entry): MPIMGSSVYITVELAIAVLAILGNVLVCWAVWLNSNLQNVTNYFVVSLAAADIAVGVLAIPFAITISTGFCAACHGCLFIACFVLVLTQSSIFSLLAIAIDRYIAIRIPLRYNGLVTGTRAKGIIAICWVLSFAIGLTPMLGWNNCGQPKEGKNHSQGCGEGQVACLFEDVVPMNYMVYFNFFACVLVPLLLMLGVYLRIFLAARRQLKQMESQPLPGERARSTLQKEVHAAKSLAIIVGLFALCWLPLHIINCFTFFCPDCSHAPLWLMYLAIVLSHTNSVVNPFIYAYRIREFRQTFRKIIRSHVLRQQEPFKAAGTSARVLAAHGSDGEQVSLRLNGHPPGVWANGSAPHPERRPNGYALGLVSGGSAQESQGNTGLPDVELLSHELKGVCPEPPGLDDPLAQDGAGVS

[34] = Displacement of [3H]SCH23390 from human recombinant dopamine D1 receptor expressed in HEK293 cells by liquid scintillation counting analysis; format: cell-based
[35] = target: T3, Adenosine receptor A2a; assay: […] activity at human recombinant adenosine A2A receptor expressed in CHO cells assessed as inhibition of NECA-induced cAMP accumulation incubated for 20 mins by radioligand competition binding assay; format: functional, cell-based
[36] = target: D(3) dopamine receptor (Homo sapiens, UniProt P35462); assay: Displacement of [3H]spiperone from human recombinant dopamine D3 receptor expressed in CHO cells by liquid scintillation counting analysis; format: cell-based
Sequence of D(3) dopamine receptor (P35462 whole entry): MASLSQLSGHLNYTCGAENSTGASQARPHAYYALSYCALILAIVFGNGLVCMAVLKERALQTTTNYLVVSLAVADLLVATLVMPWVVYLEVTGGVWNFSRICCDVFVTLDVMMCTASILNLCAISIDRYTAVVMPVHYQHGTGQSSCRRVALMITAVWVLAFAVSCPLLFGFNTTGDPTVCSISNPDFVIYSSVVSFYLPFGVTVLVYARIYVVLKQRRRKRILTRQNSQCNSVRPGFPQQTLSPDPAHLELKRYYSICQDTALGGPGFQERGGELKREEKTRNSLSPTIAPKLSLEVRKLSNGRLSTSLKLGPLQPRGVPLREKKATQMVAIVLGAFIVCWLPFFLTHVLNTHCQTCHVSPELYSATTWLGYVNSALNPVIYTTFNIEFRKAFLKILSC

[37] = target: T4, Adenosine receptor A3 (Homo sapiens, UniProt P0DMS8); assay: Displacement of [3H]PSB-11 from human recombinant adenosine A3 receptor expressed in CHO cells by liquid scintillation counting analysis; format: cell-based
T4 sequence (P0DMS8 whole entry): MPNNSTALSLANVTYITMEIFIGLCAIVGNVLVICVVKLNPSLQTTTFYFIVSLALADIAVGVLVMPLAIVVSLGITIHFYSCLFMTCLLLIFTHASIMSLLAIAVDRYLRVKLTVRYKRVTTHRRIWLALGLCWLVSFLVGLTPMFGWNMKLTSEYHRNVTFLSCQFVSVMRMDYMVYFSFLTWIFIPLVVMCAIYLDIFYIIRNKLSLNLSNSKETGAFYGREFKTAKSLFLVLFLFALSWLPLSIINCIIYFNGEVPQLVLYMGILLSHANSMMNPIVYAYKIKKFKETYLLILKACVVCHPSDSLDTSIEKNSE

[38] = target: Histamine H1 receptor (Homo sapiens, UniProt P35367); assay: Displacement of [3H]pyrilamine from human recombinant histamine H1 receptor expressed in CHO cells by liquid scintillation counting analysis; format: cell-based
Sequence of Histamine H1 receptor (P35367 whole entry): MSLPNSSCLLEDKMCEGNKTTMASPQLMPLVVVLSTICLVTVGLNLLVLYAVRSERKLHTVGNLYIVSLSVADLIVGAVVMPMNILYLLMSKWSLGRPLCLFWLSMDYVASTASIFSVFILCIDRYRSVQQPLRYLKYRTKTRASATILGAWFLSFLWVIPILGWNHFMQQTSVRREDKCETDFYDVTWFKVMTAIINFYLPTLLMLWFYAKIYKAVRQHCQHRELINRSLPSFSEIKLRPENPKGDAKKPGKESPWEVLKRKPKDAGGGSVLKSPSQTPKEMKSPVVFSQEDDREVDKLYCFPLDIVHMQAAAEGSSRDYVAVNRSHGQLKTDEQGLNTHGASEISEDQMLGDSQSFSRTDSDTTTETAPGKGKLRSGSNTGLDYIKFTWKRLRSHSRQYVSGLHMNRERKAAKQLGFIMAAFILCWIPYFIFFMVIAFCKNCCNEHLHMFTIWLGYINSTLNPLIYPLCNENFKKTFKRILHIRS

[39] = Toxicity in C57BL/6 mouse assessed as effect on paradoxical sleep at 2 mg/kg, po by EEG analysis; format: organism-based; settings: in vivo
[40] = species on record: Homo sapiens; assay: Selectivity index, ratio of Ki for human recombinant dopamine D2S receptor to Ki for human recombinant adenosine A2B receptor

Ratio Ki [1]: 142
Ratio Ki [2]: 0.84
Ratio Ki [3]: 0.36
Ratio Ki [4]: 2
Ratio Ki [5]: 31
Ratio Ki [6]: 37
Ki [7]: 1.59 µM
inhibition at 0.5 h, 10 µM [8]: 16%
Ratio Ki [9]: 7
Ratio Ki [10]: 8
Ratio Ki [11]: 0.22
Ratio Ki [12]: 4
inhibition at 0.5 h, 10 µM [13]: 50%
Ratio Ki [14]: 13
Ratio Ki [15]: 3
Ki [16]: > 10 µM
Ratio Ki [17]: 3
Ratio Ki [18]: 396
Ki [21]: 0.0435 µM
Ratio Ki [22]: 0.08
Ratio Ki [23]: 11
Ratio Ki [25]: 33
Ki [26]: > 1 µM
Ki [27]: 0.052 µM
Ratio Ki [29]: 91
Ratio Ki [30]: 11
Ratio Ki [31]: 0.23
Ki [32]: 0.0112 µM
Ki [33]: 0.00401 µM
Activity [35]: inactive
Ki [36]: 0.364 µM
Ki [37]: 0.15 µM
Ki [38]: > 1 µM
Ratio Ki [40]: 36
Compound: Nc1nc(-c2ccccc2)c2c(n1)-c1cc(OCCCN3CCCCC3)ccc1C2=O
Activity [19]: Active
Activity [20]: Active
Activity [24]: inactive
Activity [28]: Dose-Dependent Effect
Ki [34]: > 1 µM
Activity [39]: Non-Toxic
